The target of test [1] is T1, DPP-IV (Homo sapiens, UniProt P27487).
T1 construct: purchased Enzyme Systems Products SPE-01
Nature of the test: In vitro assay for dipeptidyl peptidase inhibition. Type of test: biochemical.

Test [2] concerns KK/H1J mice. Nature of the test: In vivo assay for glucose lowering (oral glucose tolerance test). As to conditions: 4-6 week old fasted KK/H1J mice, oral dosing in 0.5% methylcellulose, glucose at 15 minutes, plasma glucose at 45 minutes. As to the method: The glucose lowering effects of the compound of Example 2 were exemplified in 4-6 week old KK/H1J mice (Jackson Labs) in the context of an oral glucose tolerance test.
The mice were fasted overnight (about 14-18 hours), but allowed free access to water. After fasting, (time “t”=0), 25 μL of blood was drawn from the retro-orbital sinus and added to 0.025% heparinized saline (100 μL) on ice. The mice (10 per group) were then orally dosed with a solution of a compound of formula (1) in 0.5% methylcellulose (0.2 mL/mouse). Two controls groups received only 0.5% methylcellulose. At time=15 minutes, the mice were bled, as described above, and then dosed with […] glucose in distilled water (0.2 mL/mouse). The first control group was dosed with glucose. The second control group was dosed with water. At time=45 minutes, the mice were again bled, as described above. The blood samples were centrifuged, the plasma collected and analyzed for glucose content on a Roche-Hitachi 912 glucose analyzer.

Where [3] appears, read: n-value given in brackets, read-out: DPP-IV IC50.
The mark [4] stands for this setting: Examples 156-162, n-value in brackets, IC50's or percent inhibition at 300 nM, read-out: DPP-IV inhibition.

Structures can show the parent of a compound that is named as a salt. Where two headings read alike, the source gives them in different places.

We go through 24 compounds from patent US7485641B2, “Substituted 3-amino-pyrrolidino-4-lactams” (Pfizer, Inc., priority 2006, dated 2009).

T1 sequence (P27487 whole entry, species assumed): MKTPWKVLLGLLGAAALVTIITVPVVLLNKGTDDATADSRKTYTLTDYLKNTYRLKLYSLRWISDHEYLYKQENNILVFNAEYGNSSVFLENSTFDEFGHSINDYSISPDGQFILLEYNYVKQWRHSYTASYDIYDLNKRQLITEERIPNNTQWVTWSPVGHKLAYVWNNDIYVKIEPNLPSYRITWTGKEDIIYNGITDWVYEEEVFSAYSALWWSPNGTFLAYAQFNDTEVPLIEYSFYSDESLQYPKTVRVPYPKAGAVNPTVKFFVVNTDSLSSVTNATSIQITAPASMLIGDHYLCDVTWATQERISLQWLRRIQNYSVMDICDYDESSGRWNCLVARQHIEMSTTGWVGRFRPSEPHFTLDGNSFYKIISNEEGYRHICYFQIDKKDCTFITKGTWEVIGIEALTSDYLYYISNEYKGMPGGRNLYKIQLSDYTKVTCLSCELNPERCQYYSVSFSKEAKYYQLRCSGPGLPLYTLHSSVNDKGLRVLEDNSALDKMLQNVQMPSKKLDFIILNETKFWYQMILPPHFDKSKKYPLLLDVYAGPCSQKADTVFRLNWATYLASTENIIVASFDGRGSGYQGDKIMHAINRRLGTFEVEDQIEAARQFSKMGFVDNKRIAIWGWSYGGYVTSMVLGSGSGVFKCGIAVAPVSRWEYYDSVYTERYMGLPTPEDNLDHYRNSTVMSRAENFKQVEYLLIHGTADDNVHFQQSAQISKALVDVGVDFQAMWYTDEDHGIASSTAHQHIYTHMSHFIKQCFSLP

`N[C@H]1CN(c2cc(N3CCC(F)(F)C3)ncn2)C[C@@H]1N1CC(F)(F)CCC1=O` [Example 2, 1-((3S,4S)-4-amino-1-(6-(3,3-difluoropyrrolidin-1-yl)pyrimidin-4-yl)pyrrolidin-3-yl)-5,5-difluoropiperidin-2-one]: the IC50 in test [1] (setting [3]) came out at 0.00839 µM. Also, the “percent (%) inhibition of glucose excursion relative to the two control groups” value in test [2] was determined as 39.8%.
Turning to `CS(=O)(=O)c1ccc(S(=O)(=O)Oc2ccc3c(N4C[C@H](N)[C@@H](N5CCCCC5=O)C4)ncnc3c2)cc1` [Example 141, 4-((3S,4S)-3-amino-4-(2-oxopiperidin-1-yl)pyrrolidin-1-yl)quinazolin-7-yl 4-(methylsulfonyl)benzenesulfonate], the IC50 in test [1] (setting [3]) was found to be 0.278 µM.
Turning to `N[C@H]1CN(c2ncnc3cc(OS(=O)(=O)c4ccc(F)cc4)ccc23)C[C@@H]1N1CCCCC1=O` [Example 142, 4-Fluoro-benzenesulfonic acid 4-[(3S,4S)-3-amino-4-(2-oxo-piperidin-1-yl)-pyrrolidin-1-yl]-quinazolin-7-ylester], the “DPP-IV Percent Inhibition at 300 nM” value in test [1] (at 300 nM, n-value given in brackets) is on record as 47/3%(4).
`N[C@H]1CN(c2ncnc3cc(OS(=O)(=O)c4ccc(F)cc4F)ccc23)C[C@@H]1N1CCCCC1=O` [Example 143, 4-((3S,4S)-3-amino-4-(2-oxopiperidin-1-yl)pyrrolidin-1-yl)quinazolin-7-yl 2,4-difluorobenzenesulfonate]: the IC50 in test [1] (setting [3]) amounted to 0.28 µM.
The term inhibition denotes how much of the control response was suppressed. Consider `N[C@H]1CN(c2ncnc3cc(OS(=O)(=O)c4ccc(F)c(F)c4)ccc23)C[C@@H]1N1CCCCC1=O` [Example 144, 4-((3S,4S)-3-amino-4-(2-oxopiperidin-1-yl)pyrrolidin-1-yl)quinazolin-7-yl 3,4-difluorobenzenesulfonate], for which, in test [1] (at 300 nM, n-value given in brackets, read-out: DPP-IV Percent Inhibition at 300 nM), the inhibition at 0.3 µM is 41%.
As to `N[C@H]1CN(c2nncc3ccccc23)C[C@@H]1N1CCCCC1=O` [Example 145, 1-((3S,4S)-4-amino-1-(phthalazin-1-yl)pyrrolidin-3-yl)piperidin-2-one trifluoroacetate], the IC50 in test [1] (setting [3]) amounted to 0.224 µM.
Still for that read-out and setting: the result for `COc1ccc2c(N3C[C@H](N)[C@@H](N4CCCCC4=O)C3)nncc2c1` [Example 146, 1-((3S,4S)-4-amino-1-(6-methoxyphthalazin-1-yl)pyrrolidin-3-yl)piperidin-2-one] reads 0.0462 µM; that for `COc1nc(OC)nc(N2C[C@H](N)[C@@H](N3CCCCC3=O)C2)n1` [Example 147, 1-[(3S,4S)-4-Amino-1-(4,6-dimethoxy-[1,3,5]triazin-2-yl)-pyrrolidin-3-yl]-piperidin-2-onetrifluoroacetate], 0.133 µM.
Still for that read-out and setting: the result for `N[C@H]1CN(c2ncnc3[nH]cnc23)C[C@@H]1N1CCCCC1=O` [Example 148, 1-[(3S,4S)-4-Amino-1-(9H-purin-6-yl)-pyrrolidin-3-yl]-piperidin-2-one hydrochloride] reads 0.415 µM.
On the same count and under the same terms, the result for `N[C@H]1CN(c2ncnc3c2ncn3CC(F)(F)F)C[C@@H]1N1CCCCC1=O` [Example 149, 1-{(2S,4S)-4-Amino-1-[9-(2,2,2-trifluoro-ethyl)-9H-purin-6-yl]-pyrrolidin-3-yl}-piperidin-2-onehydrochloride] reads 0.497 µM; that for `N[C@H]1CN(c2ncnc3c2ncn3C2CC2)C[C@@H]1N1CCCCC1=O` [Example 150, 1-[(3S,4S)-4-Amino-1-(9-cyclopropyl-9H-purin-6-yl)-pyrrolidin-3-yl]-piperidin-2-one hydrochloride], 0.189 µM.
Take `N[C@H]1CN(c2ncnc3c2ncn3C2CC2)C[C@@H]1N1CCCC1=O` [Example 151, 1-((3S,4S)-4-Amino-1-(9-cyclopropyl-9H-purin-6-yl)pyrrolidin-3-yl)pyrrolidin-2-one hydrochloride]: the IC50 in test [1] (setting [3]) is more than 3 µM.
On the same count and under the same terms, the result for `COc1ccc(Cl)c2c(N3C[C@H](N)[C@@H](N4CCCCC4=O)C3)ncnc12` [Example 152, 1-((3S,4S)-4-amino-1-(5-chloro-8-methoxyquinazolin-4-yl)pyrrolidin-3-yl)piperidin-2-one trifluoroacetate] reads more than 30 µM; that for `N[C@H]1CN(C(=O)c2cc3cc(Cl)ccc3o2)C[C@@H]1N1CC(F)(F)CCC1=O` [Example 153, 1-((3S,4S)-4-amino-1-(5-chlorobenzofuran-2-carbonyl)pyrrolidin-3-yl)-5,5-difluoropiperidin-2-one], 0.0786 µM; that for `N[C@H]1CN(C(=O)c2cc3cc(Cl)ccc3o2)C[C@@H]1N1CCCCC1=O` [Example 154, 1-[(3S,4S)-4-Amino-1-[(5-chloro-1-benzofuran-2-yl)carbonyl]-pyrrolidin-3-yl]-piperidin-2-one hydrochloride], 0.0923 µM.
The same measure, in the same setting: the result for `COc1ccc2oc(C(=O)N3C[C@H](N)[C@@H](N4CC(F)(F)CCC4=O)C3)cc2c1` [Example 155, 1-((3S,4S)-4-amino-1-(5-methoxybenzofuran-2-carbonyl)pyrrolidin-3-yl)-5,5-difluoropiperidin-2-one] reads 0.102 µM.
Regarding `N[C@H]1CN(C(=O)c2cc3ccccc3o2)C[C@@H]1N1CCCCC1=O` [Example 156, 1-[(3S,4S)-4-Amino-1-(benzofuran-2-carbonyl)-pyrrolidin-3-yl]-piperidin-2-one hydrochloride], the IC50 in test [1] (setting [4]) is 0.187 µM.
Same read-out and setting: the result for `N[C@H]1CN(C(=O)c2cc3cc(Cl)ccc3o2)C[C@@H]1N1CCCCC1=O` [Example 157, 1-((3S,4S)-4-amino-1-(5-chlorobenzofuran-2-carbonyl)pyrrolidin-3-yl)piperidin-2-onetrifluoroacetate] reads 0.212 µM.
Consider `N[C@H]1CN(C(=O)c2cc3ccc(Cl)cc3o2)C[C@@H]1N1CCCCC1=O` [Example 158, 1-((3S,4S)-4-amino-1-(6-chlorobenzofuran-2-carbonyl)pyrrolidin-3-yl)piperidin-2-onetrifluoroacetate], for which the IC50 in test [1] (setting [4]) came to 0.231 µM.
On the same count and under the same terms, the result for `COc1ccc2oc(C(=O)N3C[C@H](N)[C@@H](N4CCCCC4=O)C3)cc2c1` [Example 159, 1-[(3S,4S)-4-Amino-1-(5-methoxy-benzofuran-2-carbonyl)-pyrrolidin-3-yl]-piperidin-2-onehydrochloride] reads 0.0793 µM; that for `N[C@H]1CN(C(=O)c2cc3ccccc3s2)C[C@@H]1N1CCCCC1=O` [Example 160, 1-[(3S,4S)-4-Amino-1-(benzo[b]thiophene-2-carbonyl)-pyrrolidin-3-yl]-piperidin-2-onehydrochloride], 0.317 µM.
Same read-out and setting: the result for `N[C@H]1CN(C(=O)c2cc3cc(Cl)ccc3[nH]2)C[C@@H]1N1CCCCC1=O` [Example 161, 1-[(3S,4S)-4-Amino-1-(5-chloro-1H-indole-2-carbonyl)-pyrrolidin-3-yl]-piperidin-2-onehydrochloride] reads 1.16 µM; that for `COc1ccc2[nH]c(C(=O)N3C[C@H](N)[C@@H](N4CCCCC4=O)C3)cc2c1` [Example 162, 1-[(3S,4S)-4-Amino-1-(5-methoxy-1H-indole-2-carbonyl)-pyrrolidin-3-yl]-piperidin-2-onehydrochloride], 1.46 µM.
Regarding “N-((R)-1-{4-[(3S,4S)-3-Amino-4-(2-oxo-piperidin-1-yl)-pyrrolidin-1-yl]-[1,3,5]triazin-2-yl}-pyrrolidin-3-yl)-acetamidetrifluoracetate [Example 43]”, in test [1] (setting [3]), the IC50 turned out to be 0.227 µM.
